Assay results published in US20050239656A1, “Pyridine compounds or salts thereof and herbicides containing the same” (priority 2002, published 2005).

Legend:
[1] = tested on: soybean; test: Test Example 1: foliage treatment, upland pot test; assay type: in vivo, Glycine max Merr.; conditions: crop, active ingredient 1000 g/ha, observed 18th to 23rd day, 0 = non-treated, 100 = complete kill
Outline: (§1)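 Foliage tx, upland soil pots; stages: wheat 1.3-2.4 L, rice 1.2-2.6 L, soybean 0.1-0.4 L, barnyardgrass 1.3-2.8 L. WP/EC diluted, 500 L/ha water + 0.1% (v/v) agricultural spreader, small sprayer. Visual rating d18–23, 0–100% control.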

[2] = tested on: corn; test: Test Example 2: soil surface treatment, upland pot test; assay type: in vivo, Zea mays L.; conditions: active ingredient 1000 g/ha, observed 20th to 28th day
Outline: (§2)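 Upland soil in pots of 1/170,000 ha is sown; on day 1 after sowing the formulated compound (wettable powder or emulsifiable concentrate, predetermined a.i. amount, water volume 1,500 L/ha) is applied to the soil surface with a small sprayer. Percent control is judged by eye 20–28 days later.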

[3] = tested on: green foxtail; test: Test Example 1: foliage treatment, upland pot test; assay type: in vivo, Setaria viridis L.; conditions: active ingredient 1000 g/ha, observed 18th to 23rd day, 0 = non-treated, 100 = complete kill
[4] = tested on: prickly sida; test: Test Example 1: foliage treatment, upland pot test; assay type: in vivo, Sida spinosa L.; conditions: active ingredient 1000 g/ha, observed 18th to 23rd day, 0 = non-treated, 100 = complete kill
[5] = tested on: crabgrass; test: Test Example 1: foliage treatment, upland pot test; assay type: in vivo, Digitaria sanguinalis L.; conditions: active ingredient 1000 g/ha, observed 18th to 23rd day, 0 = non-treated, 100 = complete kill
[6] = tested on: rice; test: Test Example 1: foliage treatment, upland pot test; assay type: in vivo, Oryza sativa L.; conditions: crop, active ingredient 1000 g/ha, observed 18th to 23rd day, 0 = non-treated, 100 = complete kill
Outline: as §1

[7] = tested on: soybean; test: Test Example 2: soil surface treatment, upland pot test; assay type: in vivo, Glycine max Merr.; conditions: active ingredient 1000 g/ha, observed 20th to 28th day
Outline: as §2

[8] = tested on: wheat; test: Test Example 1: foliage treatment, upland pot test; assay type: in vivo, Triticum spp.; conditions: crop, active ingredient 1000 g/ha, observed 18th to 23rd day, 0 = non-treated, 100 = complete kill
Outline: as §1

[9] = tested on: corn; test: Test Example 1: foliage treatment, upland pot test; assay type: in vivo, Zea mays L.; conditions: crop, active ingredient 1000 g/ha, observed 18th to 23rd day, 0 = non-treated, 100 = complete kill
Outline: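 Corn seeds were sown in upland field soil held in a 1/170,000 ha pot and grown to the 2.1 to 3.2 leaf stage. A wettable powder or emulsifiable concentrate of the test compound was diluted with water at 500 L/ha, given 0.1% (v/v) agricultural spreader, and sprayed onto the foliage with a small sprayer. Growth controlling degree (%) was scored visually 18th to 23rd days later, from 0 (non-treated) to 100 (complete kill).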

[10] = tested on: japanese ribbon wapato; test: Test Example 3: paddy pot test, application under submerged conditions; assay type: in vivo, Sagittaria pygniaea; conditions: submerged application at primary leaf stage, visually observed 14 days after application, 0 = non-treated, 100 = complete kill
Outline: (§3)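 Paddy soil pots; seeds sown, lightly covered; flooded 0.5–1 cm in greenhouse; wapato tubers planted day 1–2; flood raised to 3–4 cm. Submerged pipette application at 0.5 leaf / primary leaf stage. Visual score day 14, 0–100%.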

[11] = tested on: velvetleaf; test: Test Example 2: soil surface treatment, upland pot test; assay type: in vivo, Abutilon theophrasti MEDIC.; conditions: active ingredient 1000 g/ha, observed 20th to 28th day
Outline: as §2

[12] = tested on: rice; test: as above; assay type: in vivo, Oryza sativa L.; conditions: active ingredient 1000 g/ha, observed 20th to 28th day
Outline: as §2

[13] = tested on: prickly sida; test: as above; assay type: in vivo, Sida spinosa L.; conditions: active ingredient 1000 g/ha, observed 20th to 28th day
Outline: as §2

[14] = tested on: redroot pigweed; test: Test Example 1: foliage treatment, upland pot test; assay type: in vivo, Amaranthus retroflexus L.; conditions: active ingredient 1000 g/ha, observed 18th to 23rd day, 0 = non-treated, 100 = complete kill
[15] = tested on: wheat; test: Test Example 2: soil surface treatment, upland pot test; assay type: in vivo, Triticum spp.; conditions: active ingredient 1000 g/ha, observed 20th to 28th day
Outline: as §2

[16] = tested on: barnyardgrass; test: Test Example 1: foliage treatment, upland pot test; assay type: in vivo, Echinochloa crus-galli L.; conditions: active ingredient 1000 g/ha, observed 18th to 23rd day, 0 = non-treated, 100 = complete kill
Outline: as §1

[17] = tested on: barnyardgrass; test: Test Example 2: soil surface treatment, upland pot test; assay type: in vivo, Echinochloa crus-galli L.; conditions: active ingredient 1000 g/ha, observed 20th to 28th day, 0 = non-treated, 100 = complete kill
Outline: as §2

[18] = tested on: rice (var. Nihonbare); test: Test Example 3: paddy pot test, transplanted rice; assay type: in vivo, Oryza sativa L.; conditions: applied 4th day after transplantation, visually observed 21st day after application, 0 = non-treated, 100 = complete kill
Outline: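 Visual crop-injury rating (0 = as untreated, 100 = complete kill, %) taken 21 days post-application. Treatment: formulated compound, water-diluted, pipetted into 3–4 cm flood water at a preset active-ingredient dose, 4 days after transplanting 2-leaf Nihonbare rice 3 cm deep in puddled paddy soil.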

[19] = tested on: japanese bulrush; test: Test Example 3: paddy pot test, application under submerged conditions; assay type: in vivo, Scirpus juncoides; conditions: submerged application at 0.5 leaf stage, visually observed 14 days after application, 0 = non-treated, 100 = complete kill
Outline: as §3

[20] = tested on: redroot pigweed; test: Test Example 2: soil surface treatment, upland pot test; assay type: in vivo, Amaranthus retroflexus L.; conditions: active ingredient 1000 g/ha, observed 20th to 28th day
Outline: as §2

[21] = tested on: velvetleaf; test: Test Example 1: foliage treatment, upland pot test; assay type: in vivo, Abutilon theophrasti MEDIC.; conditions: active ingredient 1000 g/ha, observed 18th to 23rd day, 0 = non-treated, 100 = complete kill
[22] = tested on: green foxtail; test: Test Example 2: soil surface treatment, upland pot test; assay type: in vivo, Setaria viridis L.; conditions: active ingredient 1000 g/ha, observed 20th to 28th day
Outline: as §2

[23] = tested on: crabgrass; test: as above; assay type: in vivo, Digitaria sanguinalis L.; conditions: active ingredient 1000 g/ha, observed 20th to 28th day
Outline: as §2

[24] = tested on: barnyardgrass; test: Test Example 3: paddy pot test, application under submerged conditions; assay type: in vivo, Echinochloa crus-galli L.; conditions: submerged application at 0.5 leaf stage, visually observed 14 days after application, 0 = non-treated, 100 = complete kill
Outline: as §3

[25] = tested on: tall morningglory; test: Test Example 1: foliage treatment, upland pot test; assay type: in vivo, Ipomoea purpurea L.; conditions: active ingredient 1000 g/ha, observed 18th to 23rd day, 0 = non-treated, 100 = complete kill

Row | SMILES | melting point [°C] | Growth controlling degree (%) Soybean [1] [%] | Growth controlling degree (%) Corn [2] [%] | Growth controlling degree (%) Green foxtail [3] [%] | Growth controlling degree (%) Prickly sida [4] [%] | Growth controlling degree (%) Crabgrass [5] [%] | Growth controlling degree (%) Rice [6] [%] | Growth controlling degree (%) Soyabean [7] [%] | Growth controlling degree (%) wheat [8] [%] | Growth controlling degree (%) Corn [9] [%] | Growth controlling degree (%) Japanese ribbon wapato ([10]; active ingredient 500 g/ha) [%] | Growth controlling degree (%) Velvetleaf [11] [%] | Growth controlling degree (%) Rice [12] [%] | Growth controlling degree (%) Prickly sida [13] [%] | Growth controlling degree (%) Redroot pigweed [14] [%] | Growth controlling degree (%) wheat [15] [%] | Growth controlling degree (%) Barnyardgrass [16] [%] | Growth controlling degree (%) Barnyardgrass [17] [%] | Growth controlling degree (%) Rice ([18]; active ingredient 500 g/ha) [%] | Growth controlling degree (%) Japanese bulrush ([19]; active ingredient 500 g/ha) [%] | also measured
1 | CC(C)C(c1cnccc1C(F)(F)F)N(C)C(=O)Cc1ccccc1 (stereo not drawn) [I-1, N-methyl-N-[2-methyl-1-(4-trifluoromethylpyridin-3-yl)propyl]phenylacetamide] | 71.2 | 80 | 70 | 70 | 80 | 80 | 60 | 50 | 60 | 70 | 95 | 80 | 80 | 70 | 70 | 50 | 80 | 90 | 60 | 98 | Growth controlling degree (%) Redroot pigweed [20]: 80%; Growth controlling degree (%) Velvetleaf [21]: 90%; Growth controlling degree (%) Green foxtail [22]: 100%; Growth controlling degree (%) Crabgrass [23]: 100%
2 | CCN(C(=O)Cc1c(F)cccc1F)C(c1cnccc1C(F)(F)F)C(C)C (stereo not drawn) [I-30, N-ethyl-N-[2-methyl-1-(4-trifluoromethylpyridin-3-yl)propyl]2,6-difluorophenylacetamide] | 121.9 |  |  |  |  |  |  |  |  |  |  |  |  |  |  |  |  |  |  |  | Growth controlling degree (%) Japanese ribbon wapato ([10]; active ingredient 250 g/ha): 80%; Growth controlling degree (%) Barnyardgrass ([24]; active ingredient 250 g/ha): 100%; Growth controlling degree (%) Rice ([18]; active ingredient 250 g/ha): 0%; Growth controlling degree (%) Japanese bulrush ([19]; active ingredient 250 g/ha): 90%
3 | COC(=O)N(C)C(c1cnccc1C(F)(F)F)c1cccc2ccccc12 (stereo not drawn) [I-46] |  | 95 | 10 | 50 | 80 | 95 | 30 | 0 | 30 | 40 | 90 | 50 | 10 | 60 | 90 | 30 | 80 | 100 | 10 | 100 | Growth controlling degree (%) Barnyardgrass ([24]; active ingredient 500 g/ha): 100%; Growth controlling degree (%) Redroot pigweed [20]: 10%; Growth controlling degree (%) Velvetleaf [21]: 95%; Growth controlling degree (%) Tall morningglory [25]: 95%; Growth controlling degree (%) Green foxtail [22]: 95%; Growth controlling degree (%) Crabgrass [23]: 90%
